Assay [1] has as its system ERK1/2 phosphorylation in Panc-1 cells. Nature of the assay: Western ERK1/2 cell-based phosphorylation assay. More on the design: species or system human. The conditions noted are these: at 10 μM, values in brackets < > are activation %, not inhibition. In short, it runs like this:
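Panc-1 cells starved overnight in 0.5% FBS, then exposed 6 h at 37 °C to compound at 10 μM final (0.3% DMSO) or serial dilutions for IC50. Stimulation with 1.5 ng/ml EGF for 15 min; phospho-ERK1/2 (Thr202/Tyr204) read by western blot on equal protein loads.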

Assay [2] relates to Akt phosphorylation in Panc-1 cells. In words: Western AKT cell-based phosphorylation assay. The arrangement: species or system human. The conditions noted are these: at 10 μM, values in brackets < > are activation %, not inhibition. In short, it runs like this:
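Panc-1 cells starved overnight in 0.5% FBS, exposed to compound at 10 μM (0.3% DMSO) for 6 h at 37° C, then stimulated with 1.5 ng/ml EGF for 15 min. Lysates probed by western blot with anti-phospho-Akt (Ser473), equal protein loading checked by Ponceau S.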

Assay [3] concerns the target KRas wild type (Homo sapiens, UniProt P01116). In words: Ras GTP binding domain inhibition assay (labeled-GTP competition, cell-free). More on the design: made in house. In short, it runs like this: (§1)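 His-tagged protein immobilized on Ni-coated wells overnight at 4 °C. Compounds (20 μM single point or serial dilution for IC50) incubated 3 h at RT, ± Sos (residues 556-1049, 10-30 μg/mL) during the final hour. Cy3- or Cy5-GTP (100 nM) then added for 45 min; bound label read by fluorescence after washing.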

Assay [4] concerns the target Rac-1 (Homo sapiens, UniProt P63000). The description is as above. More on the design: made in house. The following applies: without SOS, read-out: Rac-1: % inh. In short, it runs like this: as §1
Assay [5] has as its target Rho-A (Homo sapiens, UniProt P61586). The description is as above. More on the design: made in house. The conditions noted are these: without SOS, read-out: Rho-A: % inh. In short, it runs like this: as §1
Setting [6] is: with SOS, read-out: KRas wild type + SOS: % inh.
Setting [7] is: without SOS, read-out: KRas wild type: % inh.

The values that follow come from patent US20230227466A1, “SUBSTITUTED THIENOPYRIMIDINES THAT INTERACT WITH THE RAS SUPERFAMILY FOR THE TREATMENT OF CANCERS, INFLAMMATORY DISEASES, RASOPATHIES, AND FIBROTIC DISEASE” (SHY Therapeutics, LLC, priority 2020, published 2023).

Like-named read-outs stand apart in the source and are kept apart here. Where only a bound is given, the exact number is not on record here.

With `Cc1c(-c2ccn(C(C)C)n2)sc2nc(-c3nccn3C)nc(NCCc3ncc[nH]3)c12` [Compound 53, N-(2-(1H-Imidazol-2-yl)ethyl)-6-(1-isopropyl-1H-pyrazol-3-yl)-5-methyl-2-(1-methyl-1H-imidazol-2-yl)thieno[2,3-d]pyrimidin-4-amine], in assay [1], the “% inh of ERK1/2 phosphorylation in PANC-1” value is 0 (0% inhibition). The “% inh of AKT phosphorylation in PANC-1” value in assay [2] is 0 (0% inhibition). The inhibition at 20 µM in assay [3] (setting [6]) was 51 to 75%; in assay [3] (setting [7]) it was 26 to 50%; in assay [4], 1 to 25%; in assay [5], 76 to 100%.

Regarding `CO[C@H]1CC[C@H](Nc2nc(-c3nccn3C)nc3sc(-c4ccn(C(C)C)n4)c(C)c23)CC1` [Compound 54], the “% inh of ERK1/2 phosphorylation in PANC-1” value in assay [1] is given as “D (76-100% inhibition)”. For the same compound, in assay [2], the “% inh of AKT phosphorylation in PANC-1” value is given as “<A>”. The inhibition at 20 µM in assay [3] (setting [6]) lay in the range of 76 to 100%; in assay [3] (setting [7]), 76 to 100%; in assay [4], 26 to 50%; in assay [5] it was 51 to 75%.

Take `CO[C@H]1CC[C@@H](Nc2nc(-c3nccn3C)nc3sc(-c4ccn(C(C)C)n4)c(C)c23)CC1` [Compound 55]: the “% inh of ERK1/2 phosphorylation in PANC-1” value in assay [1] was “D (76-100% inhibition)”. Besides, the “% inh of AKT phosphorylation in PANC-1” value in assay [2] is “<A>”. The inhibition at 20 µM in assay [3] (setting [6]) was 1 to 25%; in assay [3] (setting [7]) it was 1 to 25%; in assay [4], 0%; in assay [5], 51 to 75%.

With `Cc1c(-c2ccn(C(C)C)n2)sc2nc(-c3nccn3C)nc(NCc3ncc[nH]3)c12` [Compound 57, N-((1H-Imidazol-2-yl)methyl)-6-(1-isopropyl-1H-pyrazol-3-yl)-5-methyl-2-(1-methyl-1H-imidazol-2-yl)thieno[2,3-d]pyrimidin-4-amine], in assay [1], the “% inh of ERK1/2 phosphorylation in PANC-1” value was “A (1-25% inhibition)”. Moreover, the “% inh of AKT phosphorylation in PANC-1” value in assay [2] was 0 (0% inhibition). Moreover, the inhibition at 20 µM in assay [3] (setting [6]) is 26 to 50%; in assay [3] (setting [7]) it was 26 to 50%; in assay [4] it was 0%; in assay [5] it was 51 to 75%.

Take `Cc1c(-c2ccn(C(C)C)n2)sc2nc(-c3nccn3C)nc(NCCc3cn(C)cn3)c12` [Compound 58, 6-(1-Isopropyl-1H-pyrazol-3-yl)-5-methyl-2-(1-methyl-1H-imidazol-2-yl)-N-(2-(1-methyl-1H-imidazol-4-yl)ethyl)thieno[2,3-d]pyrimidin-4-amine]: the “% inh of ERK1/2 phosphorylation in PANC-1” value in assay [1] is on record as “A (1-25% inhibition)”. Besides, in assay [2], the “% inh of AKT phosphorylation in PANC-1” value is listed as 0 (0% inhibition). In addition, the inhibition at 20 µM in assay [3] (setting [6]) was in the range of 76 to 100%; in assay [3] (setting [7]), 76 to 100%; in assay [4], 26 to 50%; in assay [5] it was 76 to 100%.

For `Cc1c(-c2ccn(C(C)C)n2)sc2nc(-c3nccn3C)nc(NCc3c[nH]cn3)c12` [Compound 59, N-((1H-Imidazol-4-yl)methyl)-6-(1-isopropyl-1H-pyrazol-3-yl)-5-methyl-2-(1-methyl-1H-imidazol-2-yl)thieno[2,3-d]pyrimidin-4-amine], the “% inh of ERK1/2 phosphorylation in PANC-1” value in assay [1] is reported as 0 (0% inhibition). Besides, in assay [2], the “% inh of AKT phosphorylation in PANC-1” value is on record as 0 (0% inhibition). Further, the inhibition at 20 µM lay within 76 to 100% in assay [3] (setting [6]), 26 to 50% in assay [3] (setting [7]), 51 to 75% in assay [4] and 51 to 75% in assay [5].

Take `Cc1c(-c2ccn(C(C)C)n2)sc2nc(-c3nccn3C)nc(NCc3n[nH]c(=O)n3C)c12` [Compound 60, 5-(((6-(1-Isopropyl-1H-pyrazol-3-yl)-5-methyl-2-(1-methyl-1H-imidazol-2-yl)thieno[2,3-d]pyrimidin-4-yl)amino)methyl)-4-methyl-2,4-dihydro-3H-1,2,4-triazol-3-one]: the “% inh of ERK1/2 phosphorylation in PANC-1” value in assay [1] is recorded as 0 (0% inhibition). Besides, the “% inh of AKT phosphorylation in PANC-1” value in assay [2] is given as 0 (0% inhibition). In addition, the inhibition at 20 µM in assay [3] (setting [6]) fell in the range of 51 to 75%; in assay [3] (setting [7]), 51 to 75%; in assay [4], 51 to 75%; in assay [5], 76 to 100%.

In the case of `COc1cccc(Nc2nc(-c3nccn3C)nc3sc(-c4ccn(C(C)C)n4)c(C)c23)c1` [Compound 64, 6-(1-Isopropyl-1H-pyrazol-3-yl)-N-(3-methoxyphenyl)-5-methyl-2-(1-methyl-1H-imidazol-2-yl)thieno[2,3-d]pyrimidin-4-amine], in assay [1], the “% inh of ERK1/2 phosphorylation in PANC-1” value is on record as “D (76-100% inhibition)”. Also, in assay [2], the “% inh of AKT phosphorylation in PANC-1” value is reported as “B (26-50% inhibition)”. The inhibition at 20 µM in assay [3] (setting [6]) is 76 to 100%; in assay [3] (setting [7]), 0%; in assay [4], 26 to 50%; in assay [5], 26 to 50%.

As for `COc1cccc(Nc2nc(-c3nccn3C)nc3sc(-c4ccn(C(C)C)n4)c(C)c23)n1.Cl` [Compound 65, 6-(1-Isopropyl-1H-pyrazol-3-yl)-N-(6-methoxypyridin-2-yl)-5-methyl-2-(1-methyl-1H-imidazol-2-yl)thieno[2,3-d]pyrimidin-4-amine hydrochloride salt], the “% inh of ERK1/2 phosphorylation in PANC-1” value in assay [1] is “D (76-100% inhibition)”. Also, the “% inh of AKT phosphorylation in PANC-1” value in assay [2] is on record as “B (26-50% inhibition)”. In addition, the inhibition at 20 µM in assay [3] (setting [6]) was in the range of 51 to 75%; in assay [3] (setting [7]) it was 26 to 50%; in assay [4] it was 26 to 50%; in assay [5], 51 to 75%.

Take `COc1cc(Nc2nc(-c3nccn3C)nc3sc(-c4ccn(C(C)C)n4)c(C)c23)ncn1` [Compound 66, 6-(1-Isopropyl-1H-pyrazol-3-yl)-N-(6-methoxypyrimidin-4-yl)-5-methyl-2-(1-methyl-1H-imidazol-2-yl)thieno[2,3-d]pyrimidin-4-amine]: the “% inh of ERK1/2 phosphorylation in PANC-1” value in assay [1] is 0 (0% inhibition). In addition, the “% inh of AKT phosphorylation in PANC-1” value in assay [2] is “B (26-50% inhibition)”. The inhibition at 20 µM in assay [3] (setting [6]) was 51 to 75%; in assay [3] (setting [7]) it was 51 to 75%; in assay [4] it was 51 to 75%; in assay [5], 76 to 100%.

As to `COc1cc(Nc2nc(-c3nccn3C)nc3sc(-c4ccn(C(C)C)n4)c(C)c23)ccn1` [Compound 67, 6-(1-Isopropyl-1H-pyrazol-3-yl)-N-(2-methoxypyridin-4-yl)-5-methyl-2-(1-methyl-1H-imidazol-2-yl)thieno[2,3-d]pyrimidin-4-amine], the “% inh of ERK1/2 phosphorylation in PANC-1” value in assay [1] is 0 (0% inhibition). Besides, in assay [2], the “% inh of AKT phosphorylation in PANC-1” value is listed as “<A>”. Moreover, the inhibition at 20 µM in assay [3] (setting [6]) is 51 to 75%; in assay [3] (setting [7]), 26 to 50%; in assay [4], 1 to 25%; in assay [5] it was 26 to 50%.

As to `COc1ccnc(Nc2nc(-c3nccn3C)nc3sc(-c4ccn(C(C)C)n4)c(C)c23)n1` [Compound 68, 6-(1-Isopropyl-1H-pyrazol-3-yl)-N-(4-methoxypyrimidin-2-yl)-5-methyl-2-(1-methyl-1H-imidazol-2-yl)thieno[2,3-d]pyrimidin-4-amine], in assay [1], the “% inh of ERK1/2 phosphorylation in PANC-1” value is on record as “C (51-75% inhibition)”. Further, the “% inh of AKT phosphorylation in PANC-1” value in assay [2] is “<A>”. The inhibition at 20 µM in assay [3] (setting [6]), in assay [3] (setting [7]), in assay [4] and in assay [5] was 76 to 100% throughout.

Take `Cc1c(-c2ccn(C(C)C)n2)sc2nc(-c3ccccn3)nc(N3CCC(COC(C)C)C3)c12` (stereo not drawn) [Compound 72, 4-(3-(Isopropoxymethyl)pyrrolidin-1-yl)-6-(1-isopropyl-1H-pyrazol-3-yl)-5-methyl-2-(pyridin-2-yl)thieno[2,3-d]pyrimidine]: the “% inh of ERK1/2 phosphorylation in PANC-1” value in assay [1] was “D (76-100% inhibition)”. The “% inh of AKT phosphorylation in PANC-1” value in assay [2] was “B (26-50% inhibition)”. Besides, the inhibition at 20 µM in assay [3] (setting [6]) was 0%; in assay [3] (setting [7]) it was 1 to 25%; in assay [4] it was 0%; in assay [5], 1 to 25%.

For the compound `COCCn1cnc(-c2nc(O)c3scc(-c4ccccn4)c3n2)c1` [Compound 78, 2-(1-(2-Methoxyethyl)-1H-imidazol-4-yl)-7-(pyridin-2-yl)thieno[3,2-d]pyrimidin-4-ol], the “% inh of ERK1/2 phosphorylation in PANC-1” value in assay [1] was 0 (0% inhibition). Further, the “% inh of AKT phosphorylation in PANC-1” value in assay [2] is reported as 0 (0% inhibition). Also, the inhibition at 20 µM lay in the range of 51 to 75% in assay [3] (setting [6]), 76 to 100% in assay [3] (setting [7]), 51 to 75% in assay [4] and 51 to 75% in assay [5].

Turning to `COCCCn1ccnc1-c1nc(O)c2scc(-c3ccccn3)c2n1` [Compound 79, 2-(1-(3-Methoxypropyl)-1H-imidazol-2-yl)-7-(pyridin-2-yl)thieno[3,2-d]pyrimidin-4-ol], the “% inh of ERK1/2 phosphorylation in PANC-1” value in assay [1] was 0 (0% inhibition). Further, in assay [2], the “% inh of AKT phosphorylation in PANC-1” value is reported as “<B>”. Further, the inhibition at 20 µM in assay [3] (setting [6]) lay within 51 to 75%; in assay [3] (setting [7]) it was 76 to 100%; in assay [4], 51 to 75%; in assay [5], 76 to 100%.
